Laboratory results: patent US12071425B2 (Genentech, Inc., priority 2018, dated 2024)
pIC50: −log10 of the molar value. Where a name gives a salt, the structure may show the parent alone.

Molecular target: kinase domain of IRE1 alpha (His-tagged kinase dead construct KR, AA G547-L977, D688N) (Homo sapiens (Human), UniProt O75460, D688N)
Test: IRE1α TR-FRET competition binding assay
Details: competition with Kinase Tracer 236, 0.1 μM; one hour at room temperature
Procedure, shortened: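 Sf9-expressed kinase-dead KR construct (0.006 μM final) pre-incubated 1 h at 4° C with Eu anti-His antibody (0.002 μM) in HEPES pH 7.5/MgCl2/Brij/DTT buffer; Kinase Tracer 236 (ATP-competitive probe, 0.1 μM final) added with compound. 1 h at room temperature; tracer displacement read by TR-FRET (665/615 nm).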

kinase domain of IRE1 alpha (His-tagged kinase dead construct KR, AA G547-L977, D688N), sequence (O75460 547-977 D688N): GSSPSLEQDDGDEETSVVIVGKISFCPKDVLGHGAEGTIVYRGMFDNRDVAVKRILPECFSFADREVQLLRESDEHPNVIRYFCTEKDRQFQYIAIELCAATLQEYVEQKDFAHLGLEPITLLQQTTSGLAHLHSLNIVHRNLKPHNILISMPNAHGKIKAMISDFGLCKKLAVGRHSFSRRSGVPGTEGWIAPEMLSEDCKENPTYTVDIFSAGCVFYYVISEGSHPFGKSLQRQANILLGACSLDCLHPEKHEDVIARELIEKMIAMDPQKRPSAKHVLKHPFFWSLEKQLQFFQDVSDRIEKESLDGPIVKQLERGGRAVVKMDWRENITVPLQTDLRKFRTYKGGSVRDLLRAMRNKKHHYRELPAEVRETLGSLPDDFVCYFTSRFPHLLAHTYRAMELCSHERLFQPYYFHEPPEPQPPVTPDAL

Molecule CCC(F)(F)CS(=O)(=O)Nc1c(F)cc(Oc2nc(C)ccc2-c2ccnc(N[C@@H]3CNC[C@@H](F)C3)n2)c(F)c1F [Compound 270, 2,2-Difluoro-N-(2,3,6-trifluoro-4-((3-(2-(((3S,5S)-5-fluoropiperidin-3-yl)amino)pyrimidin-4-yl)-6-methylpyridin-2-yl)oxy)phenyl)butane-1-sulfonamide] has a pIC50 of 9.27.
For O=S(=O)(CC1CC1(F)F)Nc1c(F)cc(Oc2ncccc2-c2ccnc(N[C@@H]3CNC[C@@H](F)C3)n2)c(F)c1F (stereo partly drawn) [Compound 271, 1-(2,2-Difluorocyclopropyl)-N-(2,3,6-trifluoro-4-((3-(2-(((3S,5S)-5-fluoropiperidin-3-yl)amino)pyrimidin-4-yl)pyridin-2-yl)oxy)phenyl)methanesulfonamide], the pIC50 was 8.44.
CN(C)[C@H]1CC[C@H](Nc2nccc(-c3cccnc3Oc3cc(F)c(NS(=O)(=O)Cc4ccccc4)c(F)c3F)n2)CC1 [Compound 272, N-(4-((3-(2-(((1r,4r)-4-(Dimethylamino)cyclohexyl)amino)pyrimidin-4-yl)pyridin-2-yl)oxy)-2,3,6-trifluorophenyl)-1-phenylmethanesulfonamide hydrochloride] showed a pIC50 of 9.82.
With CN=S(=O)(Cc1ccccc1)Nc1ccc(Oc2ncccc2-c2ccnc(N[C@H]3CCCNC3)n2)c(F)c1F (stereo partly drawn) [Compound 273, N-(2,3-difluoro-4-((3-(2-(((S)-piperidin-3-yl)amino)pyrimidin-4-yl)pyridin-2-yl)oxy)phenyl)-N′-methyl-1-phenylmethanesulfonimidamide] the pIC50 was 6.39.
In the case of CN=S(=O)(Cc1ccccc1)Nc1ccc(Oc2ncccc2-c2ccnc(N[C@H]3CCCNC3)n2)c(F)c1F (stereo partly drawn) [Compound 274, N-(2,3-difluoro-4-((3-(2-(((S)-piperidin-3-yl)amino)pyrimidin-4-yl)pyridin-2-yl)oxy)phenyl)-N′-methyl-1-phenylmethanesulfonimidamide], the pIC50 was 6.40.
C[C@@]1(F)CNC[C@@H](Nc2nccc(-c3cccnc3Oc3cc(F)c(NS(=O)(=O)Cc4ccccc4F)c(F)c3F)n2)C1 [Compound 275, 1-(2-Fluorophenyl)-N-(2,3,6-trifluoro-4-((3-(2-(((3S,5S)-5-fluoro-5-methylpiperidin-3-yl)amino)pyrimidin-4-yl)pyridin-2-yl)oxy)phenyl)methanesulfonamide] showed a pIC50 of 9.64.
For O=C(Nc1ccc(Oc2ncccc2-c2ccnc(N[C@@H]3CNC[C@@H](F)C3)n2)cc1)Nc1cccc(C(F)(F)F)c1 [Compound 276, 1-(4-((3-(2-(((3S,5S)-5-Fluoropiperidin-3-yl)amino)pyrimidin-4-yl)pyridin-2-yl)oxy)phenyl)-3-(3-(trifluoromethyl)phenyl)urea], the pIC50 was 6.74.
With Cc1cc(Oc2ncccc2-c2ccnc(N[C@@H]3CNC[C@@](C)(F)C3)n2)c(F)c(F)c1NS(=O)(=O)Cc1ccccc1 [Compound 279, N-(2,3-Difluoro-4-((3-(2-(((3S,5S)-5-fluoro-5-methylpiperidin-3-yl)amino)pyrimidin-4-yl)pyridin-2-yl)oxy)-6-methylphenyl)-1-phenylmethanesulfonamide] the pIC50 was 9.64.
Cc1cc(Oc2ncccc2-c2ccnc(N[C@@H]3CNC[C@@H](F)C3)n2)c(F)c(F)c1NS(=O)(=O)Cc1ccccc1 [Compound 280, N-(2,3-Difluoro-4-((3-(2-(((3S,5S)-5-fluoropiperidin-3-yl)amino)pyrimidin-4-yl)pyridin-2-yl)oxy)-6-methylphenyl)-1-phenylmethanesulfonamide] gave a pIC50 of 9.51.
C[C@@]1(F)CNC[C@@H](Nc2nccc(-c3cccnc3Oc3cc(F)c(NS(=O)(=O)Cc4ccc(F)cc4F)c(F)c3F)n2)C1 [Compound 281, 1-(2,4-Difluorophenyl)-N-(2,3,6-trifluoro-4-((3-(2-(((3S,5S)-5-fluoro-5-methylpiperidin-3-yl)amino)pyrimidin-4-yl)pyridin-2-yl)oxy)phenyl)methanesulfonamide] was tested, and the pIC50 was 9.47.
C[C@@]1(F)CNC[C@@H](Nc2nccc(-c3cccnc3Oc3cc(F)c(NS(=O)(=O)Cc4c(F)cccc4F)c(F)c3F)n2)C1 [Compound 282, 1-(2,6-Difluorophenyl)-N-(2,3,6-trifluoro-4-((3-(2-(((3S,5S)-5-fluoro-5-methylpiperidin-3-yl)amino)pyrimidin-4-yl)pyridin-2-yl)oxy)phenyl)methanesulfonamide] gave a pIC50 of 9.57.
Molecule Cc1cc(NS(=O)(=O)Cc2c(F)cccc2F)c(F)c(F)c1Oc1ncccc1-c1ccnc(N[C@@H]2CNC[C@@H](F)C2)n1 [Compound 283, N-(2,3-Difluoro-4-((3-(2-(((3S,5S)-5-fluoropiperidin-3-yl)amino)pyrimidin-4-yl)pyridin-2-yl)oxy)-5-methylphenyl)-1-(2,6-difluorophenyl)methanesulfonamide] has a pIC50 of 9.39.
For Cc1ccc(CS(=O)(=O)Nc2c(F)cc(Oc3ncccc3-c3ccnc(N[C@@H]4CNC[C@@](C)(F)C4)n3)c(F)c2F)cc1 [Compound 284, 1-p-Tolyl-N-(2,3,6-trifluoro-4-((3-(2-(((3S,5S)-5-fluoro-5-methylpiperidin-3-yl)amino)pyrimidin-4-yl)pyridin-2-yl)oxy)phenyl)methanesulfonamide], the pIC50 was 9.82.
CN1CCN(Cc2ccc(NC(=O)Nc3ccc(Oc4ncccc4-c4ccnc(N[C@@H]5CNC[C@@H](F)C5)n4)cc3)cc2C(F)(F)F)CC1 [Compound 285, 1-(4-((3-(2-(((3S,5S)-5-Fluoropiperidin-3-yl)amino)pyrimidin-4-yl)pyridin-2-yl)oxy)phenyl)-3-(4-((4-methylpiperazin-1-yl)methyl)-3-(trifluoromethyl)phenyl)urea hydrochloride] gave a pIC50 of 8.05.
For CN1CCN(Cc2ccc(NC(=O)Nc3cccc(Oc4ncccc4-c4ccnc(N[C@@H]5CNC[C@@H](F)C5)n4)c3)cc2C(F)(F)F)CC1 [Compound 286, 1-(3-((3-(2-(((3S,5S)-5-Fluoropiperidin-3-yl)amino)pyrimidin-4-yl)pyridin-2-yl)oxy)phenyl)-3-(4-((4-methylpiperazin-1-yl)methyl)-3-(trifluoromethyl)phenyl)urea hydrochloride], the pIC50 was 6.59.
In the case of Cc1ccccc1CS(=O)(=O)Nc1c(F)cc(Oc2ncccc2-c2ccnc(N[C@@H]3CNC[C@@](C)(F)C3)n2)c(F)c1F [Compound 290, 1-o-Tolyl-N-(2,3,6-trifluoro-4-((3-(2-(((3S,5S)-5-fluoro-5-methylpiperidin-3-yl)amino)pyrimidin-4-yl)pyridin-2-yl)oxy)phenyl)methanesulfonamide], the pIC50 was 9.40.
COc1cccc(CS(=O)(=O)Nc2c(F)cc(Oc3ncccc3-c3ccnc(N[C@@H]4CNC[C@@](C)(F)C4)n3)c(F)c2F)c1 [Compound 291, 1-(3-Methoxyphenyl)-N-(2,3,6-trifluoro-4-((3-(2-(((3S,5S)-5-fluoro-5-methylpiperidin-3-yl)amino)pyrimidin-4-yl)pyridin-2-yl)oxy)phenyl)methanesulfonamide] showed a pIC50 of 9.55.
In the case of Cc1c(Oc2ncccc2-c2ccnc(N[C@@H]3CNC[C@@](C)(F)C3)n2)cc(F)c(NS(=O)(=O)Cc2ccccc2)c1F [Compound 292, N-(2,6-Difluoro-4-((3-(2-(((3S,5S)-5-fluoro-5-methylpiperidin-3-yl)amino)pyrimidin-4-yl)pyridin-2-yl)oxy)-3-methylphenyl)-1-phenylmethanesulfonamide], the pIC50 was 9.48.
